The text below walks through data of ChEMBL document CHEMBL2163292, “1,2,3-Triazole-containing uracil derivatives with excellent pharmacokinetics as a novel class of potent human deoxyuridine triphosphatase inhibitors” (J Med Chem, 2012).

Molecules are shown by their SMILES.

The target of data set [1] is T1, Deoxyuridine 5'-triphosphate nucleotidohydrolase, mitochondrial (Homo sapiens, UniProt P33316).
T1 sequence (P33316 whole entry): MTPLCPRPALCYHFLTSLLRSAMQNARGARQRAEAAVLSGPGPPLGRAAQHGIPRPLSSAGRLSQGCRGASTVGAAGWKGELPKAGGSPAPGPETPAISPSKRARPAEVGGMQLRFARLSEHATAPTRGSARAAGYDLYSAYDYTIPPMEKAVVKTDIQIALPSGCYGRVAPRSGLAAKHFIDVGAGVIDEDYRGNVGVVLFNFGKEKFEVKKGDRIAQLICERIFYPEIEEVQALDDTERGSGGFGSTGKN
The data set can be described thus: Inhibition of human dUTPase assessed as reduction in [5-3H]dUMP production incubated for 15 mins by HPLC.

In data set [2] the test system is Mus musculus. Nature of the data set: Metabolic stability in Balb/cA mouse assessed as metabolite formation at 50 mg/kg, po administered as single dose measured after 0.5 hrs by reverse-phase ultra performance liquid chromatography. The format is ADME, organism-based. Also on record: dose 50 mg/kg, route oral. The following applies: in vivo.
Data set [3] relates to MX1. The data set can be described thus: Antitumor activity against human MX1 cells xenografted in Balb/cA JcL-nu mouse assessed as tumor growth inhibition at 300 mg/kg/day, po for 14 days and measured twice a week relative to untreated control. The format is functional. The following applies: MX1, 336 h. A general note: In xenograft studies the graft and the host belong to different species.

Data set [4] relates to Mus musculus. Nature of the data set: Toxicity in Balb/cA JcL-nu mouse xenografted with human MX1 cells assessed as body weight loss at 300 mg/kg/day, po for 14 days co-treated with 5-FU at 15 mg/kg/day for 14 days and measured twice a week relative to untreated control. In kind it is organism-based. The following applies: in vivo, 336 h.
Data set [5] relates to MX1. The data set can be described thus: Potentiation of 5-FU induced antitumour activity against human MX1 cells xenografted in Balb/cA JcL-nu mouse assessed as tumor growth inhibition at 300 mg/kg/day, po for 14 days co-treated with 5-FU at 15 mg/kg/day for 14 days and measured twice weekly relative to untreated control. The format is functional.
The nature of data set [6]: Cytotoxicity against human HeLaS3 cells incubated for 72 hrs by crystal violet assay. In kind it is functional, cell-based. The following applies: HeLa S3, 72 h.
The nature of data set [7]: Cmax in Balb/cA mouse at 50 mg/kg, po administered as single dose by reverse-phase ultra performance liquid chromatography. In kind it is ADME, organism-based. Also on record: dose 50 mg/kg, route oral. The following applies: in vivo.
The nature of data set [8]: Half life in Balb/cA mouse at 50 mg/kg, po administered as single dose by reverse-phase ultra performance liquid chromatography. The format is ADME, organism-based. Also on record: dose 50 mg/kg, route oral. The following applies: in vivo.
Data set [9] is described as follows: AUC (0 to t) in Balb/cA mouse at 50 mg/kg, po administered as single dose by reverse-phase ultra performance liquid chromatography. In kind it is ADME, organism-based. The following applies: plasma. Also on record: dose 50 mg/kg, route oral.
Data set [10] is described as follows: Tmax in Balb/cA mouse at 50 mg/kg, po administered as single dose by reverse-phase ultra performance liquid chromatography. The format is ADME, organism-based. Also on record: dose 50 mg/kg, route oral. The following applies: in vivo.
The test system of data set [11] is MX1. The data set can be described thus: Antitumor activity against human MX1 cells xenografted in Balb/cA JcL-nu mouse assessed as tumor growth inhibition at 15 mg/kg/day, […] as continuous infusion using osmotic pump and measured twice a week relative to untreated control. In kind it is functional.

One may read the IC50 as the concentration at which inhibition is half-maximal. Consider `O=c1ccn(CCCCc2cnnn2CCc2ccccc2OCC2CC2)c(=O)[nH]1`, for which the IC50 in [1] stood at 390 nM.
Same read-out and setting: the value for `CC[C@H](Cn1nncc1CCCCn1ccc(=O)[nH]c1=O)c1cccc(OCC2CC2)c1` was 720 nM.
The term inhibition in vivo denotes the drop in the measured response relative to a control, in per cent. A word on the EC50: it is the concentration giving half of the maximal effect. Read a high EC50 as weaker potency. As a reminder, the Cmax is the peak of the concentration-time curve. Usually half-life stands for the time needed for the level to fall by half in the phase considered. A word on the AUC(0-t): it is the area under the concentration-time curve up to a stated or last time point. A low value points to less exposure. As a reminder, the Tmax is the time from dosing to the highest level. As to `CC[C@@](O)(Cn1nncc1CCCCn1ccc(=O)[nH]c1=O)c1ccc(F)c(OCC2CC2)c1`, in the data set with Mus musculus [2], the Stability result is on record as “Stable”. Further, the inhibition in vivo at 300 mg/kg/day in the data set with MX1 [3] is -23.2%. Further, in the data set with Mus musculus [4], the Activity result was “Non-toxic”. In addition, in data set [1], the IC50 amounted to 67 nM. In the data set with MX1 [5], the “inhibition (INH)” value is reported as 84.9%. In addition, it took 41000 nM to reach a half-maximal effect in [6] (EC50). Moreover, the Cmax in data set [7] is 49.8 µM. Further, the half-life in data set [8] was 60 min. In data set [9], this compound displayed an AUC(0-t) of 57.3 µM·h. Besides, the time of peak concentration (Tmax) in data set [10] was 60 min.
Turning to `O=c1ccn(CCCCc2cnnn2CCc2ccccc2)c(=O)[nH]1`, in [1], the IC50 was 3500 nM.
The same measure, in the same setting: the value for `CC[C@@](O)(Cn1nncc1CCCCn1ccc(=O)[nH]c1=O)c1cccc(OC2CCCC2)c1` was 210 nM.
Take `CCOc1cccc([C@@](O)(CC)Cn2nncc2CCCCn2ccc(=O)[nH]c2=O)c1`: the 50% inhibitory concentration (IC50) in data set [1] is above 1000 nM.
In the case of `CC[C@](O)(Cn1nncc1CCCCn1ccc(=O)[nH]c1=O)c1cccc(OCC2CC2)c1`, the IC50 in [1] was above 1000 nM.
Same read-out and setting: the value for `COc1ccccc1CCn1nncc1CCCCn1ccc(=O)[nH]c1=O` was 5700 nM; that for `CC[C@@](O)(Cn1nncc1CCOCn1ccc(=O)[nH]c1=O)c1cccc(OCC2CC2)c1` was 170 nM.
On to `C[C@H](Cn1nncc1CCCCn1ccc(=O)[nH]c1=O)c1cccc(OCC2CC2)c1`, for which the IC50 in data set [1] was found to be 870 nM.
On the same count and under the same terms, the value for `C=CCOc1cccc([C@@](O)(CC)Cn2nncc2CCCCn2ccc(=O)[nH]c2=O)c1` was 360 nM.
Consider `O=c1ccn(CCCc2cnnn2CC(c2ccccc2)c2ccccc2)c(=O)[nH]1`, for which the IC50 in data set [1] came to 1300 nM. In addition, the concentration giving a half-maximal response (EC50) in data set [6] is above 100000 nM.
As to `COc1cccc(CCn2nncc2CCCCn2ccc(=O)[nH]c2=O)c1`, the IC50 in data set [1] is 4100 nM.
For the compound `CC[C@@](O)(Cn1nncc1CCCCn1ccc(=O)[nH]c1=O)c1cccc(OCC2(C)CC2)c1`, in [1], the IC50 is 630 nM.
On to `O=c1ccn(CCCc2cnnn2C(c2ccccc2)c2ccccc2)c(=O)[nH]1`, for which the IC50 in data set [1] is above 10000 nM.
On to `CC[C@@H](Cn1nncc1CCCCn1ccc(=O)[nH]c1=O)c1cccc(OCC2CC2)c1`, for which, in the data set with Mus musculus [2], the Stability result is “Unstable”. In addition, the IC50 in data set [1] came to 29 nM. Moreover, the EC50 in data set [6] came to 22000 nM. This compound yielded a Cmax in data set [7] of 8.69 µM. In [8], the half-life was 30 min. This compound also displayed an AUC(0-t) in data set [9] of 4.56 µM·h. Also, in [10], the Tmax worked out at 30 min.
Take `O=c1ccn(CCCCc2cnnn2CC(c2ccccc2)c2ccccc2)c(=O)[nH]1`: the IC50 in data set [1] was found to be 740 nM.
For `O=c1ccn(CCCc2cnnn2CCc2ccccc2)c(=O)[nH]1`, the IC50 in data set [1] is above 10000 nM.
The same measure, in the same setting: the value for `C[C@@H](Cn1nncc1CCCCn1ccc(=O)[nH]c1=O)c1cccc(OCC2CC2)c1` was 58 nM; that for `CC[C@](O)(Cn1nncc1CCCCn1ccc(=O)[nH]c1=O)c1ccc(F)c(OCC2CC2)c1` was 350 nM.
For the compound `O=c1ccn(CCCCc2cnnn2CCc2cccc(OCC3CC3)c2)c(=O)[nH]1`, the IC50 in [1] was found to be 210 nM. Also, a half-maximal response in data set [6] (EC50) required 84000 nM.
Consider `COc1ccc(CCn2nncc2CCCCn2ccc(=O)[nH]c2=O)cc1`, for which the IC50 in data set [1] is above 10000 nM.
Consider `O=c1[nH]cc(F)c(=O)[nH]1` [FLUOROURACIL], for which the inhibition in vivo at 15 mg/kg/day in the data set on MX1 [11] worked out at 20%.
In the case of `CC[C@@](O)(Cn1nncc1CCCCn1ccc(=O)[nH]c1=O)c1cccc(OCC2CC2)c1`, the IC50 in data set [1] is 150 nM. Besides, in [7], the highest level (Cmax) was 62.1 µM. Also, the half-life in [8] was 60 min. In data set [9], the AUC(0-t) came out at 67.4 µM·h. The time of peak concentration (Tmax) in data set [10] was 30 min.
As to `CC[C@@](O)(Cn1nncc1CCCCn1ccc(=O)[nH]c1=O)c1cccc(OCC2CCC2)c1`, in data set [1], the IC50 came out at 150 nM.
The same measure, in the same setting: in the case of `O=c1ccn(CCCCc2cnnn2C(c2ccccc2)c2ccccc2)c(=O)[nH]1` it was 1600 nM; in that of `CC[C@@](O)(Cn1nncc1CCCCn1ccc(=O)[nH]c1=O)c1cccc(OC2CCOCC2)c1`, above 1000 nM.
Still for that read-out and setting: the value for `CC[C@@](O)(Cn1nncc1CCCCn1ccc(=O)[nH]c1=O)c1cccc(OCC(C)C)c1` was 550 nM.
